Assay results reported in patent publication US9353048B2, “Compound as KCNQ potassium channel agonist, preparation method therefor and use thereof” (SHANGHAI INSTITUTE OF MATERIA MEDICA, CHINESE ACADEMY OF …, priority 2011, dated 2016).
Structures can show the parent of a compound that is named as a salt. Where two headings read alike, the source gives them in different places.

Experiments:
[1] = test system: KCNQ channels; experiment: Whole-cell voltage-clamp electrophysiological recording in CHO cells transfected with KCNQ channels; type: cell-based; conditions: for I/I0: activation multiple, maximum induced current at −10 mV testing voltage after administration (10 μM) vs before, >1 activating, <1 inhibiting; for ΔV1/2: shift of V1/2 of current activation curve, negative sign = left-ward shift, CHO cells
Description: The formulation of culture fluid for Chinese hamster […] (CHO) (Culture Collection of Chinese Academy of Sciences): 50/50 DMEM/F-12 (Cellgro, Mamassas, Va.), 10% fetal bovine serum (FBS) (Gibco, Australia) and 2 mM […] (Invitrogen). […] Lipofectamine2000™ agent (Invitrogen) was used for Transfection according to the protocol thereof. […] After cotransfection with GFP (green fluorescent protein), transfected cells could be determined under a fluorescence microscopy.
Whole-cell voltage-clamp recording was performed by using Axopatch-200B amplifier (Molecular Devices, Sunnyvale, Calif.) at room temperature. Borosilicate glass capillary tubes (World Precision Instruments, Sarasota, Fla.) were drawn into electrodes. The electric resistance of the electrodes filled with an intracellular fluid is 3 to 5 MΩ. […] During the recording, an extracellular fluid was continuously perfused by using a BPS perfusion system (ALA Scientific Instruments, Westburg, N.Y.). The formulation of the extracellular fluid was as follows: 140 mM NaCl, 5 mM KCl, 2 mM CaCl2, 1.5 mM MgCl2, 10 mM HEPES and 10 mM glucose (the pH value of the extracellular fluid was adjusted to 7.4 with NaOH). […] Resistors were connected in series to compensate 60 to 80% of signal loss. At present, multivoltage scheme was generally adopted, wherein the clamp voltage was set at −100 mV. Current was induced in cells by a series of 2000 ms stimulating voltage (from −90 mV up to +50 mV, with interval of 10 mV).
In the following table, V1/2 is the voltage at which 50% of cells were activated, ΔV1/2 is amount of a left-ward shift of V1/2, negative sign (−) represents a left-ward shift of the current activation curve and positive sign (+) represents a right-ward shift of the curve. I/I0 is the activation multiple, wherein, I0 is the maximum induced current produced under stimulation of −10 mV testing voltage, I is the maximum induced current produced under stimulation of −10 mV testing voltage after administration (10 μM), I/I0>1 represents activating activity, and I/I0<1 represents inhibiting activity. N is the number of tested cells. NT represents non-tested.

[2] = Distribution of K20.2HCl and K21.2HCl in mice's plasma and brain tissue; type: in vivo, KM mice; conditions: for Kp: brain, read-out: concentration of prototype drug in brain tissue relative to plasma
Source text: Two hours after administration, animal were fed uniformly. Specific arrangement was as following table.
Then the residual liquid was absorbed to dryness.

[3] = test system: Animal Models Induced by PTZ (Pentylenetetrazole); experiment: PTZ test, compounds by intraperitoneal injection, KM mice; type: in vivo; conditions: intraperitoneal injection, same dosage, PTZ and MES tests; formate dihydrochloride
Description: Compounds to be tested were administrated by intraperitoneal injection (10 mg/kg, 5 mg/kg, 2.5 mg/kg, 0.1 ml/10 g).

[4] = test system: Animal Models Induced by MES; experiment: MES test, compounds orally administrated (gastric lavage), KM mice; type: in vivo; conditions: gastric lavage; formate dihydrochloride
Description: One time of electrical stimulation was applied to animals through ear clip electrodes, and a convulsion characterized by a tonic hind limb extension was observed. One day before the test, animals were screened in the above procedure to record the values of MES.
1 hour later, MES was applied according to parameters set the last day, and response of animals were observed and recorded immediately.

[5] = test system: Animal Models Induced by PTZ; experiment: PTZ test, compounds orally administrated (gastric lavage), KM mice; conditions: gastric lavage; formate dihydrochloride
Description: Response of animals were observed immediately and recorded within a period of 1 h.

[6] = test system: Convulsion Induced by Pentylenetetrazole (PTZ); experiment: Convulsion induced by pentylenetetrazole (PTZ), compounds by gastric lavage, C57BL/6J mice; type: in vivo; conditions: 30 mg/kg gastric lavage
Description: The compounds to be tested were administrated to animals by gastric lavage (30 mg/kg); one hour later, pentylenetetrazole was administrated by subcutaneous injection (PTZ 80 mg/kg); and response of animals were observed within a period of 60 min.

[7] = Solubility in water (treatment of samples)
[8] = K21.2HCl 5 mg/kg gastric lavage

Row | SMILES | I/I0 [1] | ΔV1/2 [1] [mV] | other results
1 | C=C(/C=C/CN)CN(Cc1ccc(F)cc1)c1ccc(NC(=O)OCC)c(NC(=O)OCC)c1 [Compound K39, ethyl 2-(ethoxycarbonyl-imino)-4-[N-parafluorobenzyl-N-1-(6-amino-2-alkenyl-3-hexylene)-imino]-aniline formate] | 1.03 ± 0.11 |  | 
2 | C#CCN(Cc1ccc(F)cc1)c1ccc(NC(=O)OC)c(NC(=O)OC)c1 [Compound K22, methyl 2-(methoxycarbonyl-imino)-4-(N-parafluorobenzyl-N-propargyl-imino)-aniline formate] | 2.10 ± 0.35 | −27.31 ± 3.9 | 
3 | C=CCN(Cc1ccc(F)cc1)c1ccc(NC(=O)OCC)c(N)c1 [Compound K20, ethyl 2-amino-4-(N-parafluorobenzyl-N-allyl-imino)-aniline formate] | 1.75 ± 0.12 | −49.7 ± 3.4 | Kp ([2]; male, KM, mouse, oral, 20 mg/kg gastric lavage): 2.3
4 | C#CCN(Cc1ccc(F)c(C(F)(F)F)c1)c1ccccc1NC(=O)OC [Compound K14] | 1.43 ± 0.04 | −14.7 ± 2.1 | 
5 | CCOC(=O)Nc1ccc(N(CC2=CCCCC2)Cc2ccc(F)cc2)cc1NC(=O)OCC [Compound K38] | 0.16 ± 0.02 |  | 
6 | C#CCN(Cc1ccc(F)c(F)c1)c1ccc(NC(=O)OC)cc1 [Compound K19] | 2.52 ± 0.23 | −14.9 ± 2.7 | 
7 | C#CCN(Cc1ccccc1F)c1ccc(NC(=O)OC)cc1 [Compound K13] | 2.31 ± 0.36 | −7.6 ± 1.9 | 
8 | C#CCN(Cc1ccc(F)cc1)c1ccc(F)c(NC(=O)OC)c1 [Compound K10, methyl 2-fluoro-5-(N-parafluorobenzyl-N-propargyl-imino)-aniline formate] | 2.75 ± 0.31 | −18.7 ± 2.6 | 
9 | CC(=O)Nc1ccc(NCc2ccc(F)cc2)cc1 [Compound K2] | 1.50 ± 0.08 | −3.0 ± 2.0 | 
10 | COC(=O)Nc1ccc(N(CC=C(C)C)Cc2ccc(F)cc2)cc1NC(=O)OC [Compound K31] | 1.36 ± 0.13 |  | 
11 | C#CCN(Cc1ccc(F)cc1)c1ccc(NC(=O)OCC)c(N)c1 [Compound K21.2HCl, ethyl 2-amino-4-(N-parafluorobenzyl-N-propargyl-imino)-aniline formate dihydrochloride] |  |  | anti-convulsive effect compared with retigabine (in words) [3]: superior anti-convulsive effect; effect in MES test (in words) [4]: comparable effect; exposure amount of metabolite retigabine in brain tissue relative to prototype drug [2, 8]: 4.6%; exposure amount of metabolite retigabine in plasma relative to prototype drug [2, 8]: 5.4%; Kp ([2]; male, KM, mouse, oral, 5 mg/kg gastric lavage): 2.4; Tmax ([2]; male, KM, mouse, plasma or brain tissue, oral, K21.2HCl 5 mg/kg gastric lavage, read-out: time to reach the maximum concentrations (Tmax) of prototype drug in plasma or brain tissue): 15 min; effect in PTZ test (in words) [5]: obviously inhibit the tonic seizures
12 | C#CCN(Cc1cccc(F)c1)c1ccc(NC(=O)OC)cc1 [Compound K12] | 2.33 ± 0.17 | −21.1 ± 1.9 | 
13 | C=CCN(Cc1ccc(F)cc1)c1ccc(NC(=O)OCC)cc1 [Compound K7] | 1.35 ± 0.27 | −4.7 ± 2.0 | 
14 | C=C(C)CN(Cc1ccc(F)cc1)c1ccc(NC(=O)OC)c(NC(=O)OC)c1 [Compound K28] | 1.43 ± 0.05 |  | 
15 | C=CCN(Cc1ccc(F)cc1)c1ccc2[nH]c(=O)[nH]c2c1 [Compound K34, 5-(N-parafluorobenzyl-N-allyl-imino)-benzimidazole-2-one] | 1.44 ± 0.16 |  | 
16 | CCOC(=O)Nc1ccc(N(CCCC(C)=O)Cc2ccc(F)cc2)cc1NC(=O)OCC [Compound K26] | 1.25 ± 0.07 |  | 

Row | SMILES | I/I0 [1] | ΔV1/2 [1] [mV] | other results
17 | C=C(C)CN(Cc1ccc(F)cc1)c1ccc(NC(=O)OC(C)(C)C)c(NC(=O)OC(C)(C)C)c1 [Compound K29] | 1.24 ± 0.10 |  | 
18 | C=CCOC(=O)Nc1ccc(N(Cc2ccc(F)cc2)CC(C)C)cc1NC(=O)OCC=C [Compound K27] | 1.52 ± 0.17 |  | 
19 | C#CCN(c1cccc(NC(=O)OC)c1)C(C)c1ccc(F)cc1 (stereo not drawn) [Compound K16] | 1.47 ± 0.10 | −20.6 ± 4.5 | 
20 | C#CCN(Cc1ccc(F)cc1)c1ccc(NC(=O)OCc2ccccc2)cc1 [Compound K4] | 2.09 ± 0.25 | −11.5 ± 2.0 | 
21 | C#CCN(Cc1ccc(F)cc1)c1ccc(NC(=O)OC)c(F)c1 [Compound K15] | 2.09 ± 0.31 | −22.0 ± 1.5 | 
22 | CCC#CCN(Cc1ccc(F)cc1)c1ccc(NC(=O)OCC)c(NC(=O)OCC)c1 [Compound K24] | 1.2 ± 0.1 | −1.87 ± 2.5 | 
23 | C#CCCOC(=O)Nc1ccc(N(CC#C)Cc2ccc(F)cc2)cc1N [Compound K33] |  | −36.8 ± 3.3 | 
24 | C=C(C)CN(Cc1ccc(F)cc1)c1ccc(NC(=O)OC(C)C)c(NC(=O)OC(C)C)c1 [Compound K30] | 1.57 ± 0.25 |  | 
25 | C#CCN(Cc1ccc(F)cc1)c1ccc(NC(=O)OCC(C)C)cc1 [Compound K5] | 1.23 ± 0.08 | −14.3 ± 3.3 | 
26 | C#CCN(Cc1ccc(F)cc1)c1ccc2[nH]c(=O)[nH]c2c1 [Compound K25, 5-(N-parafluorobenzyl-N-propargyl-imino)-benzimidazole-2-one] | 1.8 ± 0.1 | −5.8 ± 1.7 | 
27 | C=C(/C=C/CO)CN(Cc1ccc(F)cc1)c1ccc(NC(=O)OCC)c(NC(=O)OCC)c1 [Compound K32, ethyl 2-(ethoxycarbonyl-imino)-4-[N-parafluorobenzyl-N-1-(6-hydroxyl-2-alkenyl-3-hexylene)-imino]-aniline formate] | 1.76 ± 0.09 | −6.0 ± 1.5 | 
28 | C#CCN(Cc1ccc(F)cc1)c1ccc(NC(=O)OCC)cc1 [Compound K8] | 1.99 ± 0.37 | −7.3 ± 2.5 | 
29 | CC#CCN(Cc1ccc(F)cc1)c1ccc(NC(=O)OCC)c(NC(=O)OCC)c1 [Compound K23] | 1.44 ± 0.14 | −15.34 ± 3.8 | 
30 | C#CCN(Cc1ccc(F)c(C(F)(F)F)c1)c1ccc(F)c(NC(=O)OC)c1 [Compound K11] | 2.24 ± 0.36 | −15.7 ± 1.0 | anti-convulsive effect (in words) ([6]; PTZ-induced convulsion): comparable anti-convulsive effect
31 | COC(=O)Nc1ccc(NCc2ccc(F)cc2)cc1 [Compound K1] | 2.84 ± 0.08 | −8.1 ± 3.1 | Latency period of clonus ([6]; PTZ 80 mg/kg s.c. 1 h later): 250 ± 114 s; Latency period of whole-body tonic seizures ([6]; PTZ 80 mg/kg s.c. 1 h later): 1785 ± 408 s; Mortality rate ([6]; PTZ 80 mg/kg s.c. 1 h later): 3/10; Incidence rate of convulsion ([6]; PTZ 80 mg/kg s.c. 1 h later, observed 60 min): 4/10; solubility in water (in words) [7]: can not be easily dissolved in water
32 | CCCCCOC(=O)Nc1ccc(N(Cc2ccc(F)cc2)C(=O)OCCCCC)cc1 [Compound K6] | 1.24 ± 0.02 | −1.6 ± 3.0 | 
